Values quoted from earlier work as cited in patent publication US11793200B2, “Hypochlorous acid disinfectant and its production method” (SUPER AQUA INTERNATIONAL CO., LTD., priority 2019, dated 2023).

Tested on: coliform
Conditions: compared with hypochlorite ion (CLO-); both effective free chlorine; FIG. 2

OCl [hypochlorous acid (HCLO), Hypochlorous acid]
sterilization of hypochlorous acid (HCLO) relative to hypochlorite ion (CLO-): 80 times
